Where “and” joins values, the source holds several entries; their conditions need not be identical. Equal entries are not always repeated.
What was measured:
Type in all cases: cell-based, rat
[1] = test system: cortical neural stem cells; assay: Neuronal differentiation of cortical neural stem cells (β tubulin III / TuJ-1 immunofluorescence); settings: 1 μM Buspirone alone, 6 days
Source text: (§1) Isolation of cortical and striatal stem cells. Timed pregnant Sprague Dawley rats obtained from Taconic at embryonic age E14-E15 were sacrificed as described above and the uterus removed and placed in ice cold PBS in a 10 cm petridish. After rinsing the uterus in PBS, embryos were removed from the uterus, rinsed in PBS and collected in cold HBSS (buffered with HEPES and sodium bicarbonate) in a 10 cm petridish and placed on ice.
(§2) The cortex and striatum was dissected under a microscope and collected in a 15 ml tube of HBSS, on ice. Removal of meninges is not possible at this age, and no attempt was made to do so. If the dissected tissue was in large enough chunks and settle to the bottom of the tube, no centrifugation was performed. Alternatively, the tube was centrifuged at 1000 rpm for 5 minutes to pellet the tissue. Following centrifugation, the 15 ml tube containing the tissue was sprayed with 70% ethanol and taken into the sterile hood.
(§3) The HBSS was aspirated and replaced with 10 ml of DMEM/F12. The tissue was collected at the bottom of the tube by gravity or centrifugation, medium was aspirated, and 1 ml of DMEM/F12 was to the tissue. Cells were dissociated by trituration as described above, followed by addition of 5 ml of DMEM/F12 and a second round of trituration. […] The tubes were placed standing 5–10 minutes in the hood to allow larger particles and meninges to settle. While the meninges were settling, a cell count was made. 10 μl of the cell suspension is diluted with trypan blue and counted in a hemocytometer. Cells were counted in the four outer chambers with the larger squares, and cell count calculated assuming that the volume enclosed in each of the chambers was […].
(§4) Plating, expansion and passaging of cortical and striatal stem cells A generous amount of the triturated cell suspension was left in the original 15 ml tube to avoid fibroblast contamination in cultures. About 4–5 ml of the 6 ml of cells suspension was used for plating. Cells were plated at a concentration of approximately 1×10^6 per 10 cm dish. This culture is designated P0 (passage 0).
(§5) Following plating cells were expanded for about 3–4 days. The cultures were never permitted to reach more than 70% confluency. Cultures were then passaged as follows: 5 ml of HBSS was added to each 10 cm dish and the cells incubated at 37° C. for 15–45 minutes, or until sufficient numbers of the stem cells were rounded up. It is not expected that all cells in the culture will round up as there are several cell types in the culture at P0. The pH of the HBSS should be neutral at all times during this incubation. Cells were then removed from the dish by pipetting with a 5 ml pipette, or by scraping with a policeman, collected in a 15 or 50 ml conical tube, and centrifuged at 1000 g for 5 minutes. Cells were gently re-suspended in medium, counted, and plated at a density of about 1×10^6 per 10 cm dish.
(§6) Drug treatments. Stem cells obtained as described above were treated with drugs and subjected to differentiation protocols in the second passage. Cells were plated at a density of 1×10^4 cells per well of a 12-well petridish (Falcon).
(§7) Drug treatments were started on the next day. […] The WAY 100635 antagonist compound was used simultaneously with buspirone or serotonin in the blocking experiments. Positive and negative control cultures were those treated with BDNF and FGF alone, respectively.
(§8) Cells were treated with the designated concentrations of drugs or combinations thereof, daily, and were fed every alternate day with fresh medium. Experiments were maintained for about 6–10 days in most cases.

[2] = test system: cerebellar stem cells; assay: Astrocytic differentiation of cerebellar stem cells (GFAP positive cells); settings: for % GFAP positive cells: Table 2 experiment
Experimental: as §6, §7
as §8, with “cases. Cells were fixed on about day 7–11 with a 4% solution of para-formaldehyde (PFA) in PBS, prepared as follows:” for “cases.”
Immunofluorescent staining and visualization. After fixation, the PBS was aspirated from the fixed cells and the cells were treated with blocking solution (10% normal goat serum-NGS-Jackson Labs), 0.3% Triton-Sigma, in PBS) to saturate non-specific sites and permeabilize the cells. Following blocking, cells were incubated with the following designated primary antibodies diluted in 5% NGS for 1 hour at room temperatuare: mouse monoclonal anti-MAP-2 (Sigma): 1/250 dilution; mouse monoclonal anti-β tubulin III (Covance): 1/600 dilution; mouse anti-monoclonal glial fibrillary acidic protein (GFAP-ICN Biomedicals): 1/100 dilution.
After the 1 hour incubation, cells were washed three times for 5 min each with PBS followed by incubation of a goat anti-mouse secondary antibody conjugated with stains Cy2 and Cy3 (Jackson Labs) for 1 hr at RT (dilution 1/100 as with the primary antibodies). Following three 5 minute washes with PBS, cells were incubated with the nuclear stain bis-benzimide (Sigma) for 10 min at RT. Cells were then washed 3 times with ultra-pure water and glass coverslips were mounted on them using AquaPolymount (Polysciences, Inc., PA) The mount was allowed to dry and the dishes were stored at 4° C.
For visualization of staining, the mounted cells were viewed under a fluorescent microscope using the appropriate ultra violet filters. An eyepiece with an engraved grid was used to count the cells that stained positive for β tubulin III (TuJ-1), MAP2 or GFAP. The percent of cells positive for a given antigen was estimated by counting nuclei of all cells present in the same field, as the nuclei of the cells stain blue with the bis benzimide. Five fields were counted per treatment condition, and averages with standard deviations were calculated.
To evaluate whether buspirone affected differentiation of neural stem cells into other neural cell types such as astrocytes, the buspirone-treated cerebellar cell cultures described above were subjected to immunofluorescence using a monoclonal antibody against an astrocyte-specific marker, glial fibrillary acidic protein, or GFAP.

[3] = test system: striatal stem cells; assay: Differentiation of striatal stem cells (TuJ1 positive cells); settings: for % TuJ1 positive cells: striatal stem cells, Table 6
Source text: as §1, §2, §3, §4, §5, §6
Drug treatments were started on the next day. […] The WAY 100635 antagonist compound was used simultaneously with buspirone or serotonin in the blocking experiments. Positive and negative control cultures were those treated with BDNF and FGF alone, respectively. […]

[4] = TuJ-1 staining, listed as Buspirone

O=C1CC2(CCCC2)CC(=O)N1CCCCN1CCN(c2ncccn2)CC1 [buspirone, 8-[4-[4-(2-pyrimidinyl)-1-piperazinyl]butyl]-8-azaspiro[4,5]decane-7,9-dione]
Total No. of Cells [1]: 1168 and 1228 | % Fluorescent Cells ([1]; TuJ-1 staining): significant neuronal differentiation | % Fluorescent Cells [1, 4]: 27.27% and 20.15% | No. Fluorescent Cells [1, 4]: 320 and 260 | % GFAP positive cells ([2]; 10 nM): 26.3 ± 3.7% | effect on astrocytic differentiation ([2]; 30 nM to 1 μM, FIG. 1B and FIG. 4): does not have any appreciable reproducible effects | % GFAP positive cells ([2]; 30 nM): 12.9 ± 1.9% | % GFAP positive cells ([2]; 100 nM): 20.6 ± 5.2% | % GFAP positive cells ([2]; 300 nM): 21.4 ± 4.6% | % GFAP positive cells ([2]; 1000 nM): 27.0 ± 9.0% | % TuJ1 positive cells ([3]; 100 nM): 54.4 ± 2.1% | % TuJ1 positive cells ([3]; 500 nM): 64.8 ± 2.1% | % TuJ1 positive cells ([3]; 10 μM): 67.9 ± 10.2% | % TuJ1 positive cells ([3]; 100 μM): 68.5 ± 6.5% | promotion of differentiation compared to untreated control cultures (in words) ([3]; striatum, concentrations as low as 100 nM): able to promote differentiation significantly
